As a reminder, the pEC50 is the negative decadic logarithm of the EC50, by convention in mol/L. The low end stands for a high EC50, the high end for a low EC50. By pIC50 is commonly meant the IC50 on a negative log10 scale, so that one unit is a factor of ten. Higher therefore signals a low IC50. What is called IC50 is the midpoint of a concentration-inhibition curve.

pEC50, pIC50: −log10 of the molar value. Read-outs that look alike come from different tables or passages of the source.

This note sets out measurements from patent US20130150350A1, “Derivatives of 1-Phenyl-1,5-Dihydro-Benzo[B] [1,4]Diazepine-2,4-Dione as Inhibitors of HIV Replication” (BOEHRINGER INGELHEIM INTERNATIONAL GMBH, priority 2010, published 2013).

In assay [1] the test system is HIV-1 replication in C8166 LTRluc cells. Briefly: C8166 HIV-1 luciferase assay. Format: cell-based. The settings on record: Human immunodeficiency virus 1, 72 h, inhibition of HIV-1 replication, moi 0.005, 3 days. As for the experimental part:
The assay used to measure inhibition of HIV replication is as described in WO 2004/050643, pages 73-75, herein incorporated by reference, with the following modifications:
Serial dilutions of HIV-1 inhibitors are prepared in complete media from DMSO stock solutions. Eleven serial dilutions of desired concentration are prepared in a 1 mL deep well titer plate (96 wells). The 12th well contains complete media with no inhibitor and serves as the positive control. All samples contain the same concentration of DMSO 0.1% DMSO). Inhibitor is added, to triplicate wells, of a 96 well tissue culture treated clear view black microtiter plate (Corning Costar catalogue #3904). The total volume per well is 200 μL of media containing the cells and inhibitor. The last row is reserved for uninfected C8166 LTRluc cells to serve as the background blank control and the first row is media alone.
Count C8166 LTRluc cells and place in a minimal volume of complete RPMI 1640 in a tissue culture flask (ex. 30×10^6 cells in 10 mL media/25 cm^2 flask). Infect cells with HIV-1 at a moi of 0.005. Incubate cells for 1.5 hours at 37° C. on a rotating rack in a 5% CO2 incubator. Resuspend cells in complete RPMI to give a final concentration of 25,000-cells/well. Add cells to wells of 96 well microtiter plate containing inhibitors. Add 25,000 uninfected C8166—LTRluc cells/well in 200 μL complete RPMI to last row for background control. Incubate cells at 37° C. in 5% CO2 incubator for 3 days.

For assay [2], the target named is T1, assembled HIV-1 capsid complexes (CA-NC protein, SEQ ID NO: 2) (Human immunodeficiency virus type 1 group M subtype B, UniProt P12493, G226D).
T1 construct: HIV-1NL4-3 CA-NC, Gag residues 133-432; initiator Met (start codon introduced by PCR primer) (N); made in house; host or cells: E. coli BL21(DE3), pET-11a
Briefly: Capsid disassembly assay (CDA). In kind it is biochemical. An excerpt:
The GAG polyprotein is the major structural protein required for HIV viral particle assembly. During the maturation process, Gag is cleaved by the viral protease and releases its four major proteins, matrix (MA), capsid (CA), nucleocapside (NC) and p6, as well as two spacer peptides termed SP1 and SP2. This triggers profound morphological changes to the viral particle as CA will reassemble to form the viral core, a structure that is essential for viral infectivity.
(§1) SEQ ID NO: 1 is a nucleic acid of 900 base pairs encoding HIV-1NL4-3 CA-NC, Gag residues 133-432, having the CA G94D mutation (SEQ ID NO: 2). SEQ ID NO: 1, is transferred to pET-11a expression vector (Novagen™) by PCR amplification using primers that introduce an NdeI site and a start codon at the 5′-end and a BamHI site and a stop codon at the 3′-end. Resistance mutations in CA were identified by passage of the HIV-1 virus in the presence of compounds of the invention, namely V27A/I, K30R, S33G, V36T, T58I, G61E, G208A/R, E213G, K30R/T58I, K30R/G208R, V36T/G208R, S33G/T58I, S33G/G208R and T58I/G208R, all numbered with reference to SEQ ID NO: 2,. These resistance mutations may be introduced in the expression vector using the QuikChange® II Site-Directed Mutagenesis Kit (Stratagene) according to the manufacturer's instructions. SEQ ID NOS: 2 is expressed in the BL21(DE3) E. coli cells (Novagen™). Briefly, LB media is inoculated with overnight pre-cultures and grown at 37° C. until mid log-phase (Abs600 ˜0.6), protein expression is induced by addition of 0.5-1 mM isopropyl-β,D-thiogalactopyranoside (IPTG) and carried out for 4 to 6 hours at 30° C. Cells are harvested by centrifugation and pellets are stored at −80° C. until purification.
(§2) Purification of CA-NC (SEQ ID NO: 2) is as follows: 5 to 10 g of cell paste are lysed by sonication in 40 ml of Buffer A [20 mM Tris pH 7.5; 1 μM ZnCl2; 10 mM β-mercaptoethanol] supplemented with 0.5M NaCl and Complete EDTA-free® protease inhibitors tablets (Roche). Nucleic acids and cell debris are removed by adding 0.11 volumes of 0.2 M ammonium sulfate and an equivalent volume of 10% poly-(ethyleneimine) pH 8.0, stirring the sample for 20 minutes at 4° C., followed by centrifugation at 30 000×g for 20 minutes. SEQ ID NO: 2 is recovered from the supernatant by adding 0.35 volumes of saturated ammonium sulfate solution followed by centrifugation at 10 000×g for 15 minutes. The pellet is dissolved in 10 ml of Buffer A+0.1 M NaCl and dialyzed overnight in the same buffer but at 0.05 M NaCl (Dialysis Buffer). The sample is then cleared by centrifugation and passed on a 1-ml HiTrapTMSP HP column (GE Healthcare) pre-equilibrated with Dialysis Buffer. SEQ ID NO: 2 is eluted with Buffer A+0.5 M NaCl, fractions containing the protein are pooled; concentration determination is done by Abs280 using the calculated molar extinction coefficient (E=40220 M-1 cm-1).
Reacti-Bind Neutravidin Coated black 384-well plates (Pierce Cat#15402) are washed with 80 μl/well of Buffer A (50 mM Tris pH 8.0; 350 mM NaCl; 10 μM ZnSO4; 0.0025% CHAPS (w/v); 50 μg/ml BSA; 1 mM DTT). Immobilization of a 5′-end biotin labeled (TG)25 oligonucleotide (Integrated DNA Technology Inc.) is carried out by adding 50 μl/well of a 25 nM solution of oligonucleotide in Buffer A+5 mg/ml BSA and incubating overnight. Unbound material is removed by two 80 μl/well washes with Buffer A. Assembly reactions are performed in 60 μl/well reactions comprising 100 nM of 5′-end fluorescein labeled (TG)25 oligonucleotide (Integrated DNA Technology Inc.) and 2 μM of CA-NC protein (SEQ ID NO: 2), using Buffer A. Assembly reactions are incubated for 2 hours at room temperature and non-immobilized material is removed by washing 80 μl/well with Buffer A. Test compounds, serially diluted in Buffer A+0.125% dimethyl sulfoxide (DMSO), are added to the wells (60 μl/well) and incubated at room temperature for 2 hours. […]

Assay [3] deals with T2, HIV-1NL4-3 CA-NC protein (SEQ ID NO: 2) (Human immunodeficiency virus type 1 group M subtype B, UniProt P12493, G226D).
T2 construct: HIV-1NL4-3 CA-NC, Gag residues 133-432; initiator Met (start codon introduced by PCR primer) (N); made in house; host or cells: E. coli BL21(DE3), pET-11a
Put plainly: Immobilized capsid assembly assay (CAA). In kind it is biochemical.
From the text: as §1, §2
Reacti-Bind Neutravidin Coated black 384-well plates (Pierce Cat#15402) are washed with 80 μl/well of Buffer A (50 mM Tris pH 8.0; 350 mM NaCl; 10 μM ZnSO4; 0.0025% CHAPS (w/v); 50 μg/ml bovine serum albumin (BSA); 1 mM DTT). Immobilization of a 5′-end biotin labeled (TG)25 oligonucleotide (Integrated DNA Technology Inc.) is carried out by adding 50 μl/well of a 25 nM solution of oligonucleotide in Buffer A+5 mg/ml of BSA (Sigma™) and incubating overnight. Unbound material is removed by two 80 μl/well washes with Buffer A. Assembly reactions are performed in 60 μl/well reactions comprising test compound, 100 nM of 5′-end fluorescein labeled (TG)25 oligonucleotide (Integrated DNA Technology Inc.) and 2 μM of CA-NC protein (SEQ ID NO: 2), using Buffer A+1% DMSO. Assembly reactions are incubated for 2 hours at room temperature and non-immobilized material is removed by two successive 80 μl/well washes with Buffer A. Finally, 80 μl/well of Buffer A+0.1% sodium dodecyl sulfate (SDS) is added and incubated for 15 minutes prior to quantification of captured fluorescence on a Victor2 plate reader (PerkinElmer Life Sciences) equipped with fluorescein excitation and emission filters using the standard manufacturer's settings for fluorescein fluorescence. The amount of captured fluorescence is considered to be proportional to the level of assembly. The IC50 values for each compound are generated by fitting inhibition curves from ten-point dilution series to the following equation: […]

In assay [1], `CCN1C(=O)C(c2ccc(-c3cccnc3)cc2)C(=O)N(c2ccccc2)c2cc(C(F)(F)F)ccc21` (stereo not drawn) [Compound 2030] showed a pEC50 of 6.40. Also, the pIC50 in assay [2] is 6.49; in assay [3], 6.41.

In assay [1], `CCN1C(=O)N(c2ccc(O)c(-c3cccnc3)c2)C(=O)N(c2ccccc2)c2cc(C(F)(F)F)ccc21` [Compound 3014] gave a pEC50 of 6.70. Besides, the IC50 in assay [2] (concentration for 50% disassembly of assembled complexes, 2 hours at room temperature, read-out: IC50 (μM) CDA) came to 0.14 µM; in assay [3] (concentration for 50% inhibition of capsid assembly, 2 μM CA-NC, 2 hours at room temperature, read-out: IC50 (μM) CAA), 0.31 µM.

For `CCN1C(=O)C(c2ccccc2)C(=O)N(c2ccccc2)c2cc(C(F)(F)F)ccc21` (stereo not drawn) [Compound 2002], the pEC50 in assay [1] is 5.59. The pIC50 is 6.32 in assay [2] and 6.14 in assay [3].

In turn, `CCCn1cc(-c2cc(C3C(=O)N(CC)c4ccc(C(F)(F)F)cc4N(c4ccccc4)C3=O)cc(OC)c2O)cn1` (stereo not drawn) [Compound 2059] gave a pEC50 in assay [1] of 7.15. In addition, the pIC50 was 6.80 in assay [2] and 6.35 in assay [3].
